Experimental data: US11827690B2, “ApoC-II mimetic peptides” (THE UNITED STATES OF AMERICA, as represented by the …, priority 2017, dated 2023)

Assays:
[1] = tested on: C57BL/6 mice (wild-type); assay: post-prandial serum TG in C57BL/6 mice after oral gavage with vegetable oil; assay type: in vivo; settings: 1 μmoL/kg IP or SQ 30 min before gavage with vegetable oil (10 μL/gram)
Experimental: C57Bl/6 mice (wild-type), apoC-II knockout (apoC-II KO) mice, and apoC-III transgenic mice were used for in vivo study. The C57Bl/6 mice (wild-type) were purchased from Taconic Biosciences Inc. The apoC-II KO mice were created as described in Sakurai et al., J Pharmacol Exp Ther 356:341-353, 2016. The apoC-III transgenic mice were generated by overexpressing human apoC-III in C57Bl/6 mice. See Qu et al., J. Lipid Res. 48:1476-1487, 2007.
Mice were fasted overnight (approximately 12 hours) before the study and 6 hours during the study, the next day. The apoC-II mimetic peptides were synthetically produced and free of biological contamination (not available as FDA approved compounds/treatment). Peptides were produced and used in sterile conditions and filtered by 0.2 nm filter before injections in a single dose 1-10 μmol/kg body weight (B. W.) administered either subcutaneous injection (S.Q. or S.C.), intraperitoneal injection (I.P.) or intravenous injection (I.V.) (in a sterile, pharmaceutical grade PBS solution at a volume ≤200 μL) as described in Sakurai et al., J Pharmacol Exp Ther 356:341-353, 2016.
In some experiments, each animal received 20% Intralipid (FDA approved, Fresenius Kabi, Uppsala, Sweden) in a single dose either by oral gavage (using special sterile single-use non-toxic animal feeding needles) in a dose 10-20 μL/gram body weight (B.W.) (Tuzcu et al. Drug Chem Toxicol 37: 261-267, 2014; Kusminski et al. Nature Medicine 18: 1539-1549, 2012), or by intraperitoneal injection in a single bolus of 0.1-1.0 mL (Mahadero et al. American J Surgery 164: 45-50, 1992), or by intragastric administration of a dietetic commercially-available liquid oil (food grade vegetable, corn, soy or olive oil) in a single dose 10-20 μL/gram body weight. These oils were a source of TG—when absorbed TG tends to be broken down within 3 h (peak in 30 min) (Kritchevsky Nutritional Biochemistry 6:172-178, 1995). Blood samples (20-30 μL) were obtained from the retro-orbital plexus at time points: −1 h, 0 h, 1 h, 3 h, 6 h and 24 h for measurements of lipids. Mice were returned to metabolic cages after the 6 h time point where the food was put back. Once the study was completed (after 24 hours from the fat administration), mice were euthanized and organs collected.

[2] = biological target: T1, LPL inhibited by apoC-III (Bos taurus, UniProt P11151); assay: LPL activation assay using apoC-III transgenic mice plasma as substrate; assay type: biochemical; set-up: host or cells: apoC-III comes with the plasma of apoC-III transgenic C57Bl/6 mice; settings: all three transgenic mice plasma samples, FIG. 33
T1 sequence (P11151 29-478): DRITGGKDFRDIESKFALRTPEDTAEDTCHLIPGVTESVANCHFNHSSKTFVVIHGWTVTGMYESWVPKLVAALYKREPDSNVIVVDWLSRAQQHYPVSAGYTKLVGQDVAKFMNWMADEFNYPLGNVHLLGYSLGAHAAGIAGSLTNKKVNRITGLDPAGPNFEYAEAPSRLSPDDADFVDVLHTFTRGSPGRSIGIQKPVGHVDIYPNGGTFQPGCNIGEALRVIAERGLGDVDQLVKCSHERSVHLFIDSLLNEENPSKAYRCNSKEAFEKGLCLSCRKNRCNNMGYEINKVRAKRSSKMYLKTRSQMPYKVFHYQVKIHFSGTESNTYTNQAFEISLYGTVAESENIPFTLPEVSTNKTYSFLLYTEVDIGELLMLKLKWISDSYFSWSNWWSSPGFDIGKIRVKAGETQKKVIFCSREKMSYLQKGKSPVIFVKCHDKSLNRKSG
Experimental: LPL activity assay: 10 μL of Intralipid, human plasma sample, or mouse plasma sample was added in each well using repeater pipette. 10 μL (or 15 μL in the wells with no LPL control) of PBS and 10 μL of 1% BSA was added in each well using repeater pipette. 10 μL of peptides were added to corresponding wells in vertical triplicates (lowest concentration is on a left, highest is on the right). The plate was spun down at 1000 RPM for 10 seconds to mix and to remove the solutions from the wall of each well. The plate was put on ice and 5 μL of LPL was added using repeater pipette. The plate was spun down again at 1000 RPM for 10 seconds. The plate was covered and put back on ice for an incubation of 30 min. The plate was then moved to 37° C. and incubated for 1 hour.
Free fatty acids (NEFA) assay: 45 μL of 5 nmoL standard and 0 nmoL control (0.2% BSA) were added to corresponding wells. 225 μL of reagent A was added in each well using the reagent tray and 12-channel pipette. The plate was incubated for 10 min before 75 μL of reagent B was added to each well using the reagent tray and 12-channel pipette. The plate was not covered due to the high volume. The absorbance at 550 nm and 660 nm was measured.
LPL assay was performed using Intralipid, high TG human plasma (1:50 dilution), or apoC-III transgenic mouse plasma (1:50 dilution). […]

[3] = tested on: lipoproteins of human serum; assay: incubation of human serum with exogenous apoC-II-a; assay type: binding; settings: doses comparable to that achieved in vivo in mice
[4] = tested on: apoC-II knockout mice; assay: plasma lipids of apoC-II knockout mice after peptide injection; assay type: in vivo
[5] = SEC-FPLC, 1 μmole/kg, 6 hours after injection, FIG. 41

Row | Sequence | post-prandial TG rise [1] | effect on inhibition by elevated expression of apoC-III [2] | effect on inhibition by elevated expression of apoC-III ([2]; listed as ApoC-II-a) | binding to lipoproteins and apolipoprotein displacement [3] | time of maximum reduction of plasma TG ([4]; 0.1 μmol/kg intraperitoneally, after the peptide injection) | plasma TG ([4]; 0.1 μmol/kg of body weight intraperitoneally, FIG. 53) | level of HDL as measured by the phospholipid level [4, 5] | level of VLDL as measured by the phospholipid level [4, 5] | level of TG in the VLDL pool ([4]; SEC-FPLC, 1 μmole/kg, FIG. 42) | plasma TG ([4]; intraperitoneal injection) | plasma TG ([4]; repeat IP injection at 24 h intervals for 6 days, 0.25 and 1 μmole/kg, FIG. 40) | plasma TG ([4]; subcutaneous injection)
1 | DWLKAFYDKVAEKLKEAFPAMSTYTGIFTDQVLSVLKGEE (listed as Homo sapiens) [apoC-II-a, excluded from the claimed peptides] | almost completely blunted | overcame the inhibitory effect of elevated expression of apoC-III | overcomes the inhibitory effect of elevated expression of apoC-III | binds to all lipoproteins, including HDL and causes the displacement of apoC-I and apoC-III | – | – | – | – | – | – | – | –
2 | DYLKEVFEKLRDLYEKFTPAVSTYTGIFTDQVLSVLKGEE [Delta6PV] | – | – | – | – | about 6 hours | rapid reduction of plasma TG | increased | decreased | decreased | rapid and marked reduction of plasma TG | marked and lasting reduction of plasma TG | rapid and marked reduction of plasma TG
